Results on one compound are retold here after US7482459B2, “[4-(5-aminomethyl-2-fluoro-phenyl)-piperidin-1-yl]-(4-bromo-3-methyl-5-propoxy-thiophen-2-yl)-methanone hydrochloride as an inhibitor of mast cell tryptase” (Aventis Pharmaceuticals Inc., priority 2004, dated 2009).

Structures can show the parent of a compound that is named as a salt.

In data set [1] the test system is Airway Hyperresponsiveness (AHR) to histamine in sensitized guinea pigs. In words: Guinea pig model of airway hyperreactivity (AHR to histamine after ovalbumin sensitization and challenge). Type of data set: in vivo. On the procedure:
Sensitization and drug treatment: Male Hartley guinea pigs (225-250 g) are sensitized with ovalbumin (0.5 mL of 1% solution, i.p. and s.c.). On day 4, animals received a booster injection (i.p.) of 0.5 mL of 1% ovalbumin. On day 21, animals are orally dosed (2mL/kg) with either vehicle (0.5% methylcellulose/0.2% Tween 80) or test compound 2 hours prior to antigen challenge. Thirty minutes before antigen challenge the animals are also injected with mepyramine (30 mg/kg, i.p.) to prevent anaphylactic collapse. Animals are then exposed for 5 minutes to an aerosol of either saline (control animals) or 1% ovalbumin using a deVilbiss Ultraneb nebulizer.
AHR measurement: Eighteen to twenty four hours after challenge, animals are anesthetized with a combination of ketamine (133 mg/kg) and xylazine (24 mg/kg) given intramuscularly, surgically prepared and then mounted in a whole body plethysmograph for lung function measurement. Animals are connected to Ugo-Basile ventilators delivering a tidal volume of 1 mL/100 g at a rate of 50 breaths/minute via a tracheal cannula. The jugular vein is also cannulated for histamine challenge. A water filled esophageal cannula is placed such that transpulmonary pressure is recordable. Transpulmonary pressure is measured as the difference between the tracheal and esophageal cannulas using a differential pressure transducer. The volume, airflow, and transpulmonary pressure signals are monitored using a pulmonary analysis system (Buxco XA software) and used to calculate pulmonary resistance (cm H2O/mL/s) and dynamic compliance (mL/cm H2O). Airway resistance and dynamic compliance are computed on a breath by breath basis. Histamine is administered intravenously and reactivity to increasing concentrations (0.3-20 μg/kg) assessed. ED50's are estimated from the area under the curve (AUC) values derived from the individual histamine dose-response curves.

Data set [2] has as its target T1, recombinant human β tryptase (Homo sapiens, UniProt Q15661).
T1 construct: host or cells: yeast cells
In words: β-Tryptase inhibitory potency, chromogenic enzyme assay (S2366 substrate). In kind it is biochemical. On the procedure: Tryptase inhibition activity is confirmed using either isolated human lung tryptase or recombinant human β tryptase expressed in yeast cells. Essentially equivalent results are obtained using isolated native enzyme or the expressed enzyme. The assay procedure employs a 96 well microplate (Costar 3590) using L-pyroglutamyl-L-prolyl-L-arginine-para-nitroanilide (S2366: Quadratech) as substrate (essentially as described by McEuen et. al. Biochem Pharm, 1996, 52, pages 331-340). Assays are performed at room temperature using 0.5mM substrate (2×Km) and the microplate is read on a microplate reader (Beckman Biomek Plate reader) at 405 nm wavelength.
Materials and Methods for Tryptase Primary Screen (Chromogenic assay)
• S2366 (Stock solutions of 2.5 mM).
• Purified recombinant beta Tryptase Stocks of 310 μg/mL. Protocol (Single Point Determination) • Add 60 μL of diluted substrate (final concentration of 500 μM in assay buffer) to each well • Add compound in duplicates, final concentration of 20 μM, volume 20 μL • Add enzyme at a final concentration of 50 ng/mL in a volume of 20 μL • Total volume for each well is 100 μL • Agitate briefly to mix and incubate at room temp in the dark for 30 minutes • Read absorbencies at […]

A short description of data set [3]: Plasma, lung and BAL drug levels in guinea pigs. In kind it is in vivo, guinea pig. On the procedure: Plasma and Lung Drug Levels Plasma and lung compound levels are determined in satellite groups. Three to four guinea pigs from each of the experimental-drug treatment groups are used for the determination of drug levels. At the indicated time point, (either 2- or 24 hours after dosing), animals are euthanized, and 1 mL blood samples are obtained by cardiac puncture and collected into heparin-coated syringes containing 20 μL (per 1 mL of blood) of a 5 mM hydralazine solution. Plasma is separated from the cellular component of the blood by centrifugation, and stored at −20° C. until assayed. Lung samples are dissected free of connective tissues, blotted dry, weighed and stored in 20 mL vials containing 5 mL of a 5 mM hydralazine solution in saline. The frozen plasma samples are then transferred on dry ice to the Pilot PK group for compound levels determination.

The mark [4] stands for this setting: oral route, sensitized guinea pigs.
[5] abbreviates: 2 hours after dosing, 1 mg/kg, p.o.

T1 sequence (Q15661 31-275): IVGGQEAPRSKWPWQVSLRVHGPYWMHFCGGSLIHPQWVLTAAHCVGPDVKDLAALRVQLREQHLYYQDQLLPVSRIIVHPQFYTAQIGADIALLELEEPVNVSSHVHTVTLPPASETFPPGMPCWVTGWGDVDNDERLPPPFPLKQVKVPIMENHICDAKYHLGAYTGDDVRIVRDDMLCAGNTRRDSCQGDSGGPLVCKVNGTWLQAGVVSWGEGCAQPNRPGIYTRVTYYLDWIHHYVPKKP

As usually defined, the IC50 is the concentration at which inhibition is half-maximal. What is called Ki is a measure of affinity in units of concentration, obtained from inhibition or displacement. With `CCCOc1sc(C(=O)N2CCC(c3cc(CN)ccc3F)CC2)c(C)c1Br` [Compound I, [4-(5-aminomethyl-2-fluoro-phenyl)-piperidin-1-yl]-(4-bromo-3-methyl-5-propoxy-thiophen-2-yl)-methanone hydrochloride], the ED50 in data set [1] (Cavia porcellus, dosed 24 hours prior to antigen challenge, read-out: average ED50, duration of action) was determined as 0.4 mg/kg. Moreover, the “ED50, protection against antigen-stimulated AHR to histamine, as measured by airway resistance and dynamic lung compliance” value in data set [1] (oral dosing 2 hours prior to ovalbumin challenge) amounted to 0.1 mg/kg. In addition, in data set [1] (setting [4]), the “effect on basal airway resistance” value is on record as “no effect” and the “effect on basal dynamic lung compliance” value was “no effect”. Also, in data set [2] (0.5 mM substrate S2366 (2×Km), room temperature), the IC50 turned out to be 0.076 µM. Further, in data set [2] (calculated from IC50: Ki=IC50/(1+[Substrate]/Km)), the Ki is 0.015 µM. Besides, in data set [3] (setting [5]), the “compound level in lung” value was “appreciable amount” and the “compound level in plasma” value was “detected at a much lower level”. The “compound level in bronchoalveolar lavage fluid (BAL)” value in data set [3] (2 hours after dosing, 1 mg/kg, p.o., not taking into account dilution factor for BAL) is on record as “appreciable amount”. Moreover, in data set [3] (24 hours after dosing), the “compound level in lung” value is listed as “dose-dependent appreciable amount” and the “compound level in plasma” value is “no plasma could be detected”.
